This is an account of results in patent US7649002B2, “(3,5-dimethylpiperidin-1yl)(4-phenylpyrrolidin-3-yl)methanone derivatives as MCR4 agonists” (Pfizer Inc, priority 2004, dated 2010).

Data set [1] addresses T1, human MCR5 receptor (Homo sapiens, UniProt P33032).
T1 construct: expressed in transfected cells
Kind of data set: MCR5 standard functional assay (Protocol D): CHO-K1-MC5R-CRE-β-lactamase reporter. The data set is classed as cell-based. Conditions: Table 6; for Selectivity MCR5/MCR4: MCR4 by Protocol E; for EC50: Protocol D. The source says:
These cell lines were engineered using protocols akin to those outlined by Zaccolo et al (Zaccolo, M., (2000) Nature, 2(1); 25-29). Compound-induced activation of the MCR5 or MCR4 receptors in these two cell lines stimulated the production, and intracellular accumulation, of the enzyme β-lactamase. The quantity of β-lactamase enzyme produced was directly proportional to the degree to which the test compound activated the MCR5 or MCR4 receptors present on these cells and was quantified using the P-lactamase gene reporter analysis kit that is commercially available from Invitrogen Life Technologies. An in-depth description of this technology and assay protocols are available from the Invitrogen web site (www.invitrogen.com). The protocol listed below provides a summary of that assay methodology. The quantity of β-lactamase enzyme produced by compound-induced activation of the MCR5 or MCR4 receptors expressed in these cell lines was quantified using a LjI Biosystems Analyst™ HT 96.384 plate reader set to excite at a wave length of 405 nm, and measure the energy emitted at wave lengths of 450 nm and 530 nm. Cellular responses were quantified by dividing the measured energy emitted at a wavelength of 450 nm by the measured energy emitted at a wavelength of 530 nm. […] CCF4-AM was dissolved in 100% DMSO to give a final solution concentration of 1 mM. This solution was termed Solution A. Probenecid was dissolved in 200 mM NaOH to give a final solution concentration of 200 mM. This solution was termed Solution D. Composition of the β-lactamase assay dye solution: for 1072 μL of assay dye solution combine: 12 μL of Solution A, 60 μL of Solution B, 925 μL of Solution C and 75 μL of Solution D. […] Cells were grown in T225 vent cap flasks containing 50 ml of growth medium and maintained in a cell incubator at a temperature of 37° C. and in an environment containing 5% CO2. The composition of the growth medium for the CHO-K1-MC5R-CRE-β-lactamase was 90% v/v DMEM supplemented with; Glutamax-1, 25 mM HEPES, 10% v/v foetal calf serum (FCS), 1 mM sodium pyruvate, 0.1 mM non essential amino acids and 800 μg/ml genetic in. For the CHO-K1-MC4R-CRE-β-lactamase this growth media was further supplemented with […] Zeocin. Cells were harvested when they reached 80-90% confluency by first removing the existing growth medium and then washing with PBS that had been pre-warmed to a temperature of 37° C. This PBS was then removed and 5 ml of cell dissociation fluid added to the flask. These cells were incubated for 5 minutes in a cell incubator set at a temperature of 37° C. and in an environment containing 5% CO2 to detach the cells. When cells were detached, pre-warmed growth media was added, the cells re-suspended and mixed gently to achieve a single cell suspension by pipetting. This cell suspension was then used for experimentation, or transferred into a new T225 flask to perpetuate the cell culture. On the first day of the assay cells were harvested as described above. […] For each assay the cell plates were then retuned to a cell incubator maintained at a temperature of 37° C. and in an environment containing 5% CO2 overnight before performing the assay on the second assay day. […] For the MCR4 improved functional assay methodology the solution of cyclohexamide was not added. Subsequently, 10 μL of the test compound solution was transferred to the assay plate. […] After this incubation period the plate was removed from the incubator, 10 μL of the […] assay dye solution was added to each well and then the plate returned to the cell incubator.

The target of data set [2] is T2, human MCR4 receptor (Homo sapiens, UniProt P32245).
T2 construct: expressed in transfected cells
T2 sequence (P32245 whole entry): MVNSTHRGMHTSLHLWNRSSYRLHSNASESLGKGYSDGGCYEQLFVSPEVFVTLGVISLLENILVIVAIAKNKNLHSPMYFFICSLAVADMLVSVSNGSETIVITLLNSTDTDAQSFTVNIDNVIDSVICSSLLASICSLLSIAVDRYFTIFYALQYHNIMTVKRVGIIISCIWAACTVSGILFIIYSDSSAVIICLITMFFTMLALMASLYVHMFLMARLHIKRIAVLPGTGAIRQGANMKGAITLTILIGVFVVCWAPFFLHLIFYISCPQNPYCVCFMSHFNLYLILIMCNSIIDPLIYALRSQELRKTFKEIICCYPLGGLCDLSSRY
Briefly: MCR4 improved functional assay (Protocol E): CHO-K1-MC4R-CRE-β-lactamase reporter. In kind it is cell-based. The text has this: (ii) MCR5 Standard Functional Assay Methodology and MCR4 Improved Functional Assay Methodology [Assay Protocol D and E Respectively] […] These cell lines were engineered using protocols akin to those outlined by Zaccolo et al (Zaccolo, M., (2000) Nature, 2(1); 25-29). Compound-induced activation of the MCR5 or MCR4 receptors in these two cell lines stimulated the production, and intracellular accumulation, of the enzyme β-lactamase. The quantity of β-lactamase enzyme produced was directly proportional to the degree to which the test compound activated the MCR5 or MCR4 receptors present on these cells and was quantified using the P-lactamase gene reporter analysis kit that is commercially available from Invitrogen Life Technologies. An in-depth description of this technology and assay protocols are available from the Invitrogen web site (www.invitrogen.com). The protocol listed below provides a summary of that assay methodology. The quantity of β-lactamase enzyme produced by compound-induced activation of the MCR5 or MCR4 receptors expressed in these cell lines was quantified using a LjI Biosystems Analyst™ HT 96.384 plate reader set to excite at a wave length of 405 nm, and measure the energy emitted at wave lengths of 450 nm and 530 nm. Cellular responses were quantified by dividing the measured energy emitted at a wavelength of 450 nm by the measured energy emitted at a wavelength of 530 nm. […] CCF4-AM was dissolved in 100% DMSO to give a final solution concentration of 1 mM. This solution was termed Solution A. Probenecid was dissolved in 200 mM NaOH to give a final solution concentration of 200 mM. This solution was termed Solution D. Composition of the β-lactamase assay dye solution: for 1072 μL of assay dye solution combine: 12 μL of Solution A, 60 μL of Solution B, 925 μL of Solution C and 75 μL of Solution D. […] Cells were grown in T225 vent cap flasks containing 50 ml of growth medium and maintained in a cell incubator at a temperature of 37° C. and in an environment containing 5% CO2. The composition of the growth medium for the CHO-K1-MC5R-CRE-β-lactamase was 90% v/v DMEM supplemented with; Glutamax-1, 25 mM HEPES, 10% v/v foetal calf serum (FCS), 1 mM sodium pyruvate, 0.1 mM non essential amino acids and 800 μg/ml genetic in. For the CHO-K1-MC4R-CRE-β-lactamase this growth media was further supplemented with […] Zeocin. Cells were harvested when they reached 80-90% confluency by first removing the existing growth medium and then washing with PBS that had been pre-warmed to a temperature of 37° C. This PBS was then removed and 5 ml of cell dissociation fluid added to the flask. These cells were incubated for 5 minutes in a cell incubator set at a temperature of 37° C. and in an environment containing 5% CO2 to detach the cells. When cells were detached, pre-warmed growth media was added, the cells re-suspended and mixed gently to achieve a single cell suspension by pipetting. This cell suspension was then used for experimentation, or transferred into a new T225 flask to perpetuate the cell culture. […] For each assay the cell plates were then retuned to a cell incubator maintained at a temperature of 37° C. and in an environment containing 5% CO2 overnight before performing the assay on the second assay day. […] For the MCR4 improved functional assay methodology the solution of cyclohexamide was not added. Subsequently, 10 μL of the test compound solution was transferred to the assay plate. The assay plate was then transferred to a cell incubator, set at 37° C. and in an environment containing 5% CO2, and left for 4 hours for the MCR4 improved assay methodology, or 5 hours for the MCR5 standard assay methodology. After this incubation period the plate was removed from the incubator, 10 μL of the […] assay dye solution was added to each well and then the plate returned to the cell incubator.

In data set [3] the test system is men with psychogenic and organic ED. Conditions: cited from earlier work.
[4] abbreviates: Protocols C or E, read-out: functional potency at the MC4 receptor (EC50).

Where a name gives a salt, the structure may show the parent alone. Read-outs that look alike come from different tables or passages of the source. Where only a bound is given, the exact number is not on record here.

T1 sequence (P33032 whole entry): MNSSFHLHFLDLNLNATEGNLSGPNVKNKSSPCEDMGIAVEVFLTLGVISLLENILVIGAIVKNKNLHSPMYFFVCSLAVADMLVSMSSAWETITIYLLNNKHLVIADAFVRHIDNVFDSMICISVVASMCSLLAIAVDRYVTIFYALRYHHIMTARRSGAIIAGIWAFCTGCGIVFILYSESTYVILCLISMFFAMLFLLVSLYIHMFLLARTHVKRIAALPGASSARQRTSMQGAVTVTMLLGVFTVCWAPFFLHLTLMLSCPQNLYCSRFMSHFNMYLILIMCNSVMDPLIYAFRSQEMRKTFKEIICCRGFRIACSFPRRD

On to `C[C@@H]1CN(C(=O)[C@@H]2CN(C(C)(C)C)C[C@H]2c2ccc(F)cc2F)C[C@H](C)[C@@]1(O)c1ccc(F)cc1F.Cl` [Example 15, (3R,4R,5S)-1-{[(3S,4R)-1-tert-butyl-4-(2,4-difluorophenyl)pyrrolidin-3-yl]carbonyl}-4-(2,4-difluorophenyl)-3,5-dimethylpiperidin-4-ol hydrochloride], for which, in data set [1], the “Selectivity MCR5/MCR4” value stood at 556. The concentration giving a half-maximal response (EC50) in data set [1] is 3500 nM; in data set [2] (MCR4 EC50 (nM), Table 6), 6.3 nM; in data set [2] (functional potency at the MC4 receptor (EC50), Protocols C or E), less than 50 nM.
For Melanotan II, the “doses after which increased sexual desire was reported” value in data set [3] (13/19 doses, vs placebo P<0.01) is on record as 68%. In addition, in data set [3] (dose of 0.025 mg/kg), the “subjects with severe nausea” value is 12.9%. In data set [3] (in the absence of sexual stimulation, 20 men with psychogenic and organic ED), the “men with penile erection” value is 17 of 20. Moreover, the “mean duration of Rigiscan tip rigidity>80%” value in data set [3] (men with ED, monitored 6 hours) is 41 min.
Turning to `C[C@@H]1CN(C(=O)[C@@H]2CN(C(C)(C)C)C[C@H]2c2ccc(F)cc2F)C[C@H](C)[C@@]1(O)c1ccccn1.Cl` [Example 22, (3R,4R,5S)-1-[(3S,4R)-1-tert-Butyl-4-(2,4-difluorophenyl)pyrrolidin-3-yl]carbonyl-3,5-dimethyl-4-pyridin-2-ylpiperidin-4-ol hydrochloride], the “Selectivity MCR5/MCR4” value in data set [1] is reported as 772. The EC50 in data set [1] is 17800 nM; in data set [2] (setting [4]), less than 50 nM; in data set [2] (Table 6, read-out: MCR4 EC50), 23 nM.
`C[C@@H]1CN(C(=O)[C@@H]2CN(C(C)(C)C)C[C@H]2c2ccc(F)cc2F)C[C@H](C)[C@@]1(O)c1ccc(F)c(F)c1` [Example 8, (3R,4R,5S)-1-{[(3S,4R)-1-tert-Butyl-4-(2,4-difluorophenyl)pyrrolidin-3-yl]carbonyl}-4-(3,4-difluorophenyl)-3,5-dimethylpiperidin-4-ol hydrochloride]: the EC50 in data set [2] (setting [4]) is less than 10 nM.
Regarding `CC(C)N1C[C@@H](C(=O)N2C[C@@H](C)[C@](O)(c3ccc(F)cc3F)[C@@H](C)C2)[C@H](c2ccc(F)cc2F)C1` [Example 52, (3R,4R,5S)-4-(2,4-difluorophenyl)-1-{[(3S,4R)-4-(2,4-difluorophenyl)-1-isopropylpyrrolidin-3-yl]carbonyl}-3,5-dimethylpiperidin-4-ol hydrochloride], the EC50 in data set [2] (setting [4]) was less than 50 nM.
